Patent US10034886B2, “GLP-1 receptor modulators” (Celgene International II SÀRL, priority 2014, dated 2018)
Like-named read-outs stand apart in the source and are kept apart here.

Biological target: T1, GLP-1R (Homo sapiens, UniProt P43220)
T1 construct: host or cells: GLP-1R CRE-bla CHO-K1 cells
Assay: EC20 GLP-1(9-36) PAM cAMP assay: dose response of compound in the presence of fixed concentration of GLP-1(9-36)
Type: cell-based
Conditions: GLP-1R CRE-bla CHO-K1 cells, read-out: EC20 GLP-1(9-36) PAM EC50
How it was run: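 GLP-1R CRE-bla CHO-K1 cells treated 30 min at 37 °C with 12-point compound dose response plus fixed EC20 GLP-1(9-36), with IBMX, in HBSS/HEPES/0.1% BSA pH 7.4. Total cAMP measured by luminescent detection against standard curve; EC50 and Emax from non-linear regression.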

[1] = dose response of compound in presence of fixed concentration of GLP-1(9-36)
[2] = compound dose response with fixed concentration of GLP-1(9-36)

T1 sequence (P43220 24-463): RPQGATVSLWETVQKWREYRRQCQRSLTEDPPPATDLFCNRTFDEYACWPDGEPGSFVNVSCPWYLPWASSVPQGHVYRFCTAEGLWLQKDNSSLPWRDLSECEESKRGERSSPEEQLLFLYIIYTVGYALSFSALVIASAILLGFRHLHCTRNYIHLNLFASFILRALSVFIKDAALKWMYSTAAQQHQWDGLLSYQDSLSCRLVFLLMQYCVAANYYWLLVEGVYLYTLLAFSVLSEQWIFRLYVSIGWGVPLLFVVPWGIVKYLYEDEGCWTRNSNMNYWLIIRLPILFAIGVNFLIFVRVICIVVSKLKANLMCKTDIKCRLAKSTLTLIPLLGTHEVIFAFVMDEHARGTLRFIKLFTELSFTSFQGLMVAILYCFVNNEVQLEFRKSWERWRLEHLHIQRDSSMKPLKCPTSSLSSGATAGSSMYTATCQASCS
T1 sequence (P01275 100-127 partner limits assumed): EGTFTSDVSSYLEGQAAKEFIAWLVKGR

Structure (SMILES) | EC50 [1] [µM] | EC50 [2] [µM]
CCCCCCCOc1ccc(-c2cnc(-c3ccc(C[C@H](NC(=O)c4ccc(C(C)(C)C)s4)C(=O)N[C@@H](C(=O)O)C4CC4)cc3)nc2)cc1 [Compound 404] | < 0.8 | –
C[C@@H](NC(=O)[C@H](Cc1ccc(-c2ncc(-c3ccc(C4CCCCC4)cc3)cn2)cc1)NC(=O)c1ccc(C(C)(C)C)s1)C(=O)O [Compound 1282] | – | < 0.8
CC(C)(C)c1ccc(C(=O)N[C@@H](Cc2ccc(-c3ncc(-c4nc(-c5cccc(Cl)c5)no4)cn3)cc2)C(=O)NCCC(=O)O)cc1 [Compound 758] | 2.5 to 5 | –
CCCCCCCOc1ccc(-c2cnc(-c3ccc(C[C@H](NC(=O)c4ccc(C(C)(C)C)s4)C(=O)N4CCC(NC)CC4)cc3)nc2)cc1 [Compound 464] | 5 to 10 | –
C[C@@H](NC(=O)[C@H](Cc1ccc(-c2ncc(-c3cc4ccccc4s3)cn2)cc1)NC(=O)c1ccc(C(C)(C)C)s1)C(=O)O [Compound 1024] | 0.8 to 2.5 | –
CCCCCCCCc1ccc(-c2cnc(-c3ccc(C[C@H](NC(=O)c4ccc(C(C)(C)C)cc4)C(=O)NCCC(=O)O)cc3)nc2)cc1 [Compound 683] | 0.8 to 2.5 | –
CCCCCCCOc1ccc(-c2cnc(-c3ccc(C[C@H](NC(=O)c4sc(C(C)(C)C)cc4C)C(=O)N4CC[C@H](C(=O)O)C4)cc3)nc2)cc1 [Compound 866] | 2.5 to 5 | –
CCCCOc1ccc(-c2cnc(-c3ccc(C[C@H](NC(=O)c4ccc(C(C)(C)C)cc4)C(=O)NCCC(=O)O)cc3)nc2)cc1 [Compound 709] | 0.8 to 2.5 | –
CCCCCCCOc1ccc(-c2cnc(-c3ccc(C[C@H](NC(=O)c4ccc(C(C)(C)C)s4)C(=O)N[C@@H](Cc4cn(C)cn4)C(=O)O)cc3)nc2)cc1 [Compound 593] | < 0.8 | –
CCC[C@H]1CC[C@H](C2CCN(c3cnc(-c4ccc(C[C@H](NC(=O)c5ccc(C(C)(C)C)s5)C(=O)N[C@H](CC)C(=O)O)cc4)nc3)CC2)CC1 [Compound 1443] | – | < 0.8
CCCCCCCOc1ccc(-c2cnc(-c3ccc(C[C@H](NC(=O)c4ccc(C(C)(C)C)cc4)C(=O)N[C@@H](CC(=O)O)C(=O)NCCOC)cc3)nc2)cc1 [Compound 506] | 0.8 to 2.5 | –
CCCc1ccc(C(=O)N[C@@H](Cc2ccc(-c3ncc(N4CCC([C@H]5CC[C@H](CCC)CC5)CC4)cn3)cc2)C(=O)N2CC(C(=O)O)C2)cc1 [Compound 1521] | – | < 0.8
C[C@@H](NC(=O)[C@H](Cc1ccc(-c2ncc(-c3ccc(C(=O)c4ccccc4)cc3)cn2)cc1)NC(=O)c1ccc(C(C)(C)C)s1)C(=O)O [Compound 993] | 2.5 to 5 | –
CC(C)(C)c1ccc(C(=O)N[C@@H](Cc2ccc(-c3ncc(-c4ccc(C5CCOCC5)cc4)cn3)cc2)C(=O)N2CC(C(=O)O)C2)s1 [Compound 1180] | 2.5 to 5 | –
CC(C)(C)c1ccc(C(=O)N[C@@H](Cc2ccc(-c3ncc(-c4ccc(C(F)(F)F)cc4)cn3)cc2)C(=O)N2CC(C(=O)O)C2)s1 [Compound 788] | 5 to 10 | –
CC[C@H]1CC[C@H](c2ccc(-c3cnc(-c4ccc(C[C@H](NC(=O)c5ccc(C(C)(C)C)s5)C(=O)O)cc4)nc3)cc2)CC1 [Compound 1058, (S)-2-(5-(tert-butyl)thiophene-2-carboxamido)-3-(4-(5-(4-((1r,4r)-4-ethylcyclohexyl)phenyl)pyrimidin-2-yl)phenyl)propanoic acid] | < 0.8 | –
CCCCCCCOc1ccc(-c2cnc(-c3ccc(C[C@H](NC(=O)c4ccc(C(C)(C)C)s4)C(=O)NC[C@H]4CCNC4)cc3)nc2)cc1 [Compound 438] | 5 to 10 | –
CCCCCCCOc1ccc(-c2cnc(-c3ccc(C[C@H](NC(=O)c4ccc(C(C)(C)C)s4)C(=O)NC(C(=O)O)c4ccccc4C(F)(F)F)cc3)nc2)cc1 (some centres unmarked) [Compound 596] | 0.8 to 2.5 | –
CC(C)(C)c1ccc(C(=O)N[C@@H](Cc2ccc(-c3ncc(-c4nc(-c5ccc(Cl)cc5)no4)cn3)cc2)C(=O)NCCC(=O)O)cc1 [Compound 751] | 2.5 to 5 | –
CC[C@H]1CC[C@H](c2ccc(-c3cnc(-c4ccc(C[C@H](NC(=O)c5ccc(C6(C)CC6)cc5)C(=O)N5CC(C(=O)O)C5)cc4)nc3)cc2)CC1 [Compound 1159] | < 0.8 | –
CC(C)(C)c1ccc(C(=O)N[C@@H](Cc2ccc(-c3ncc(-c4ccc([C@H]5CC[C@@H](C)CC5)cc4)cn3)cc2)C(=O)N2CC(C(=O)O)C2)s1 [Compound 1177] | < 0.8 | –
CC(C)(C)c1ccc(C(=O)N[C@@H](Cc2ccc(-c3ncc(-c4ccc(OC5CCCCC5)cc4)cn3)cc2)C(=O)NC(C(=O)O)C(O)c2ccccc2)s1 (some centres unmarked) [Compound 938] | 5 to 10 | –
CC[C@H]1CC[C@H](c2ccc(-c3cnc(-c4ccc(C[C@H](NC(=O)c5ccc(C(C)(C)C)cc5)C(=O)O)cc4)nc3)cc2)CC1 [Compound 1366] | – | < 0.8
CCC(CC)Oc1ccc(-c2cnc(-c3ccc(C[C@H](NC(=O)c4ccc(C(C)(C)C)cc4)C(=O)NCCC(=O)O)cc3)nc2)cc1 [Compound 696] | 2.5 to 5 | –
CCCCCCCOc1ccc(-c2cnc(-c3ccc(C[C@H](NC(=O)Cc4ccc(OCCCC)cc4)C(=O)N[C@H](C)C(=O)O)cc3)nc2)cc1 [Compound 979] | 2.5 to 5 | –

Structure (SMILES) | EC50 [1] [µM] | EC50 [2] [µM]
C[C@@H](NC(=O)[C@H](Cc1ccc(-c2ncc(-c3ccc(-c4ccc(C#N)cc4)cc3)cn2)cc1)NC(=O)c1ccc(C(C)(C)C)s1)C(=O)O [Compound 1291] | – | 0.8 to 2.5
CCCCCCCOc1ccc(-c2cnc(-c3ccc(C[C@H](NC(=O)c4ccc(C(C)(C)C)s4)C(=O)N[C@H](C(=O)O)[C@H](O)C(C)C)cc3)nc2)cc1 [Compound 881] | 0.8 to 2.5 | –
Cc1ccc(/C=C/c2cnc(-c3ccc(C[C@H](NC(=O)c4ccc(C(C)(C)C)s4)C(=O)N[C@H](C)C(=O)O)cc3)nc2)cc1 [Compound 1052] | 2.5 to 5 | –
CCCCCCCOc1ccc(-c2cnc(-c3ccc(C[C@@H](NC(=O)c4ccc(C(C)(C)C)cc4)C(=O)N[C@H](C)C(=O)O)cc3)nc2)cc1 [Compound 437] | < 0.8 | –
CCCCCCCOc1ccc(-c2cnc(-c3ccc(C[C@H](NC(=O)c4ccc(C5CC5)cc4)C(=O)N[C@H](C)C(=O)O)cc3)nc2)cc1 [Compound 827] | 0.8 to 2.5 | –
CCCCCCCOc1ccc(-c2cnc(-c3ccc(C[C@H](NC(=O)c4ccc(C(C)(C)C)cc4)C(=O)N[C@@H](CC(=O)O)C(N)=O)cc3)nc2)cc1 [Compound 579] | < 0.8 | –
CCCCCCCOc1ccc(-c2cnc(-c3ccc(C[C@H](NC(=O)c4ccc(C(C)(C)C)s4)C(=O)NC(C(=O)O)c4c(C)n[nH]c4C)cc3)nc2)cc1 (some centres unmarked) [Compound 598] | < 0.8 | –
Cc1cc(C)cc(-c2ccc(-c3cnc(-c4ccc(C[C@H](NC(=O)c5ccc(C(C)(C)C)s5)C(=O)N5CC(C(=O)O)C5)cc4)nc3)c(F)c2)c1 [Compound 1191] | < 0.8 | –
CCCCCCCOc1ccc(-c2cnc(-c3ccc(C[C@H](NC(=O)c4ccc(C(C)(C)C)cc4)C(=O)NC(C(=O)O)c4ccco4)cc3)nc2)cc1 (some centres unmarked) [Compound 440] | < 0.8 | –
CC(C)(C)c1ccc(C(=O)N[C@@H](Cc2ccc(-c3ncc(-c4ccc(-c5cccc(Cl)c5)cc4F)cn3)cc2)C(=O)N2CC(C(=O)O)C2)s1 [Compound 1192] | < 0.8 | –
CC[C@H]1CC[C@H](c2ccc(-c3cnc(-c4ccc(C[C@H](NC(=O)c5ccc(C(C)(C)C)s5)C(=O)NCC(=O)O)cc4)nc3)cc2)CC1 [Compound 1323] | – | < 0.8
CCCCCCCOc1ccc(-c2cnc(-c3ccc(C[C@H](NC(=O)c4ccc(C(C)(C)C)s4)C(=O)N(C)CC4CCN(CCOC)CC4)cc3)nc2)cc1 [Compound 971] | 2.5 to 5 | –
CCc1ccc(/C=C/c2cnc(-c3ccc(C[C@H](NC(=O)c4ccc(C(C)(C)C)s4)C(=O)N4CC(C(=O)O)C4)cc3)nc2)cc1 [Compound 1092] | 0.8 to 2.5 | –
CCCCCCCOc1ccc(-c2cnc(-c3ccc(C[C@H](NC(=O)c4ccc(C(C)(C)C)s4)C(=O)N[C@H](CCN)C(=O)O)cc3)nc2)cc1 [Compound 411] | 0.8 to 2.5 | –
CCCCCC(=O)c1ccc(-c2cnc(-c3ccc(C[C@H](NC(=O)c4ccc(C(C)(C)C)s4)C(=O)N[C@H](C)C(=O)O)cc3)nc2)cc1 [Compound 738] | < 0.8 | –
C[C@@H](NC(=O)[C@H](Cc1ccc(-c2ncc(-c3ccc([C@H]4CC[C@H](C(C)(C)C)CC4)cc3)cn2)cc1)NC(=O)c1ccc(C(C)(C)C)s1)C(=O)O [Compound 1143] | < 0.8 | –
CCCc1ccc(C(=O)N[C@@H](Cc2ccc(-c3ncc(-c4ccc(OCCCC(C)C)cc4)cn3)cc2)C(=O)N2CC(C(=O)O)C2)s1 [Compound 1240] | – | 0.8 to 2.5
CCCCCCCOc1ccc(-c2cnc(-c3ccc(C[C@H](NC(=O)c4ccc(C(C)(C)C)cc4)C(=O)NC(CCCC)C(=O)O)cc3)nc2)cc1 (some centres unmarked) [Compound 547] | 0.8 to 2.5 | –
CCCc1ccc(-c2ccc(-c3cnc(-c4ccc(C[C@H](NC(=O)c5ccc(CC)s5)C(=O)N5CC(C(=O)O)C5)cc4)nc3)c(F)c2)cc1 [Compound 1397] | – | < 0.8
C=CCCOc1ccc(-c2cnc(-c3ccc(C[C@H](NC(=O)c4ccc(C(C)(C)C)cc4)C(=O)NCCC(=O)O)cc3)nc2)cc1 [Compound 694] | 2.5 to 5 | –
CCCCCCCOc1ccc(-c2cnc(-c3ccc(C[C@H](NC(=O)c4ccc(C(C)(C)C)cc4)C(=O)NCC(C(=O)O)C4CCOCC4)cc3)nc2)cc1 (some centres unmarked) [Compound 555] | 2.5 to 5 | –
CC(C)CCCCOc1ccc(-c2cnc(-c3ccc(C[C@H](NC(=O)c4ccc(C(C)(C)C)cc4)C(=O)N[C@H](C)C(=O)O)cc3)nc2)cc1 [Compound 792] | 0.8 to 2.5 | –
CC(C)(C)c1ccc(C(=O)N[C@@H](Cc2ccc(-c3ncc(N4CCC(c5ccccc5Cl)CC4)cn3)cc2)C(=O)N2CC(C(=O)O)C2)s1 [Compound 1480] | – | 0.8 to 2.5
CCCCCOc1ccc(-c2ccc(-c3cnc(-c4ccc(C[C@H](NC(=O)c5ccc(C(C)(C)C)s5)C(=O)N[C@H](C)C(=O)O)cc4)nc3)cc2)cc1 [Compound 1309] | – | 0.8 to 2.5
C[C@@H](NC(=O)[C@H](Cc1ccc(-c2ncc(/C=C/c3ccccc3C(F)(F)F)cn2)cc1)NC(=O)c1ccc(C(C)(C)C)s1)C(=O)O [Compound 1260] | – | 0.8 to 2.5
